Measured values from the NIST ThermoML archive (doi:10.1021/je060271a).

Settings: 283.15 K, Liquid, Vibrating tube method

CCCCCC(=O)OCC(COC(=O)CCCCC)(COC(=O)CCCCC)COC(=O)CCCCC [pentaerythritol tetrahexanoate]
Settings | mass density [kg/m3]
28190 kPa | 1019.8
28207 kPa | 1019.9
28225 kPa | 1019.7
28245 kPa | 1019.7
28262 kPa | 1019.7
28280 kPa | 1019.8
28297 kPa | 1019.7
28314 kPa | 1019.7
28334 kPa | 1019.8
28351 kPa | 1019.7
28371 kPa | 1019.8
28388 kPa | 1019.7
28405 kPa | 1019.9
28422 kPa | 1019.7
28443 kPa | 1019.8
28460 kPa | 1019.8
28478 kPa | 1019.8
28500 kPa | 1019.8
28517 kPa | 1019.8
28535 kPa | 1019.9
28552 kPa | 1019.9
28570 kPa | 1019.9
28591 kPa | 1019.9
28608 kPa | 1020
28629 kPa | 1019.9
28646 kPa | 1019.9
28664 kPa | 1019.9
28686 kPa | 1019.9
28703 kPa | 1020
28722 kPa | 1019.9
28744 kPa | 1019.9
28763 kPa | 1019.9
28781 kPa | 1019.9
28800 kPa | 1020
28815 kPa | 1020.1
28830 kPa | 1020.1
28848 kPa | 1020
28863 kPa | 1020
28878 kPa | 1020.2
28896 kPa | 1020
28911 kPa | 1020
28926 kPa | 1020
28944 kPa | 1020.1
28958 kPa | 1020.1
28973 kPa | 1020
28990 kPa | 1020.2
29004 kPa | 1020.2
29018 kPa | 1020.1
29035 kPa | 1020
29050 kPa | 1020.2
29064 kPa | 1020.1
29081 kPa | 1020.1
29096 kPa | 1020.3
29110 kPa | 1020.2
29127 kPa | 1020.2
29142 kPa | 1020.1
29156 kPa | 1020.1
29171 kPa | 1020.1
29188 kPa | 1020.2
29202 kPa | 1020.1
29219 kPa | 1020.3
29234 kPa | 1020.3
29248 kPa | 1020.3
29263 kPa | 1020.3
29280 kPa | 1020.2
29295 kPa | 1020.3
29313 kPa | 1020.3
29327 kPa | 1020.3
29342 kPa | 1020.3
29357 kPa | 1020.3
29375 kPa | 1020.3
29389 kPa | 1020.4
29407 kPa | 1020.3
29422 kPa | 1020.4
29436 kPa | 1020.2
29451 kPa | 1020.4
29469 kPa | 1020.3
29484 kPa | 1020.4
29499 kPa | 1020.3
29516 kPa | 1020.3
29531 kPa | 1020.5
29547 kPa | 1020.3
29564 kPa | 1020.4
29579 kPa | 1020.4
29594 kPa | 1020.4
29609 kPa | 1020.4
29627 kPa | 1020.4
29642 kPa | 1020.5
29660 kPa | 1020.5
29675 kPa | 1020.5
29690 kPa | 1020.6
29708 kPa | 1020.6
29723 kPa | 1020.4
29738 kPa | 1020.6
29754 kPa | 1020.5
29770 kPa | 1020.5
29788 kPa | 1020.5
29803 kPa | 1020.5
29821 kPa | 1020.5
29837 kPa | 1020.6
29852 kPa | 1020.6
29867 kPa | 1020.6
29886 kPa | 1020.6
29901 kPa | 1020.5
29916 kPa | 1020.5
29935 kPa | 1020.6
29950 kPa | 1020.6
29967 kPa | 1020.7
29982 kPa | 1020.5
29998 kPa | 1020.6
30016 kPa | 1020.5
30032 kPa | 1020.6
30048 kPa | 1020.6
30066 kPa | 1020.6
30082 kPa | 1020.6
30097 kPa | 1020.6
30116 kPa | 1020.6
30131 kPa | 1020.7
30147 kPa | 1020.7
30163 kPa | 1020.7
30182 kPa | 1020.7
30198 kPa | 1020.8
30214 kPa | 1020.7
30232 kPa | 1020.7
30248 kPa | 1020.8
30264 kPa | 1020.7
30280 kPa | 1020.7
30298 kPa | 1020.7
30314 kPa | 1020.9
30330 kPa | 1020.9
30349 kPa | 1020.8
30364 kPa | 1020.8
30384 kPa | 1020.9
30400 kPa | 1020.8
30416 kPa | 1020.9
30431 kPa | 1020.8
30451 kPa | 1020.8
30466 kPa | 1020.9
30482 kPa | 1020.9
30502 kPa | 1020.9
30517 kPa | 1020.9
30536 kPa | 1020.9
30552 kPa | 1020.9
30568 kPa | 1020.9
30587 kPa | 1021
